Source: patent US9545453B2, “CXCR4 inhibiting carriers for nucleic acid delivery” (Wayne State University, priority 2011, dated 2017)
Entries after “also recorded” stand apart in the source; their conditions may differ. One block for each compound: values may come before it.

Legend:
[1] = test system: CXCR4+U2OS cells; experiment: Matrigel cell invasion assay towards CXCL12; format: cell-based, Human; conditions: CXCL12-mediated invasion, 16 h
Procedure: The upper sides of the transwell inserts were coated with 40 μl Matrigel diluted in serum-free medium (v/v 1:3) per insert. The 24-well plates with coated inserts were then placed in 37° C. incubator for 2 h. CXCR4+U2OS cells were trypsinized and resuspended in different concentrations of drugs in serum-free medium for 30 min before adding to the inserts at a final concentration of 10,000 cells in 300 μl medium per insert. 20 nM CXCL12 in serum-free medium as the chemo-attractant was then added to corresponding wells in the companion plate. After 16 h, the non-invaded cells on the upper surface of the inserts were removed with a cotton swab. The invaded cells were then fixed and stained by dipping the inserts into Diff-Quick solution. The images were taken by EVOS ×1 microscope. Five 20× imaging areas were randomly selected for each insert and each sample was conducted in triplicate. Statistical significance of the observed differences in cell invasion was analyzed using non-parametric ANOVA with Dunn's multiple comparison test using GraphPad InStat (v. 3.10). P<0.05 was considered significant.
To further confirm the CXCR4 antagonism of RPA and RPA/DNA polyplexes, the anti-metastatic ability was evaluated by a Matrigel cell invasion assay. […] The DNA dose used in the experiment with the polyplexes (1 μg/mL DNA) was in the range of typical doses used in transfection experiments.

[2] = target: T1, CXCR4 (Homo sapiens, UniProt P61073); experiment: CXCL12-induced intracellular calcium flux (Fluo-3); format: cell-based; conditions: Fluo-3 calcium indicator, CXCL12 stimulation
Text: Binding of chemokine CXCL12 to its receptor CXCR4 triggers an intracellular signal transduction cascade comprising a transient increase in cytosolic free calcium.
Target sequence in this assay (P61073 whole entry, species assumed): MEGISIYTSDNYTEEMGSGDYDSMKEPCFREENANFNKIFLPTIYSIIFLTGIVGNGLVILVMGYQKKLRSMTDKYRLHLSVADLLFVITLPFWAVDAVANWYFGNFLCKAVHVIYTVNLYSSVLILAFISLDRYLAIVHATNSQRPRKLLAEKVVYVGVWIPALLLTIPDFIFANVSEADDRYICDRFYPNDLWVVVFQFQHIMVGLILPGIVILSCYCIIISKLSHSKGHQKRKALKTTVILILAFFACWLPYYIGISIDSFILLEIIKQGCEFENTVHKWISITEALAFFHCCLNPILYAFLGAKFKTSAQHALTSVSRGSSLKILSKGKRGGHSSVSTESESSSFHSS

[3] = target: T1, CXCR4; experiment: Phorbol myristate acetate-stimulated CXCR4 internalization; format: cell-based; conditions: 100 ng/mL phorbol myristate acetate
Text: It has been reported that CXCL12 and phorbol esters trigger CXCR4 internalization through entirely different uptake pathway (Signoret, Oldridge et al. 1997).
Target sequence in this assay (P61073 whole entry): as the sequence (P61073 whole entry, species assumed) above

[4] = test system: pDNA; experiment: DNA condensation by ethidium bromide exclusion assay; format: physicochemical; conditions: pH 7.4
Procedure: (§1) The ability of P(AMD-CBA) to condense pDNA was determined by ethidium bromide exclusion (EtBr) assay by measuring the changes in EtBr/pDNA fluorescence. pDNA solution at a concentration of 20 μg/mL was mixed with EtBr (1 μg/mL) and fluorescence was measured and set to 100% using an excitation wavelength of 540 nm and an emission wavelength of 590 nm. Fluorescence readings were taken following a stepwise addition of the polycation solution, and the condensation curve for each polycation was constructed.
as §1, with “P(Cyc-CBA)” for “P(AMD-CBA)”
At pH 7.4, a w/w ratio above 2 was required for RPA to fully condense the DNA, which was higher than that required in case of RHB (w/w 1) and PEI (w/w 0.5). […] The redox stability of RPA/DNA polyplexes was tested by agarose gel electrophoresis after GSH treatment.

[5] = complexes with nucleic acids
Text: Ability to condense DNA is a prerequisite for successful polyplex gene delivery. FIG. 1 schematically represents this process.

[6] = Toxicity of copper complexes of P(AMD-CBA) (procedure of example 14); format: cell-based
Procedure: 20,000 cells were seeded per well in 96-well plates 24 hours ahead. The culturing medium was first removed and then replaced with 150 μL of medium containing increasing concentration of the polycations. After 24 hours, the incubation medium was removed and a mixture of 100 μL of fresh serum-free medium and 20 μL of MTS reagent solution was added to each well. The cells were incubated for at 37° C. in CO2 incubator for 2 hours. The absorbance at wavelength 505 nm was then measured to determine cell viability. IC50 values were calculated by Prism Graphpad Software.
Toxicity of polycations was also evaluated by MTS assay in Hep G2 cells and CXCR4+U2OS cells. […] Hep G2 cells were maintained in MEM supplemented with 10% FBS. Human epithelial osteosarcoma U2OS cells stably expressing human CXCR4 receptor fused to the N-terminus of enhanced green fluorescent protein were purchased form Fisher Scientific. The cells were cultured in DMEM supplemented with 2 mM L-Glutamine, 10% FBS, 1% Pen-Strep and 0.5 mg/ml G418. The cells were plated into 96-well microtiter plates at a density of 20,000 cells/well. […] After 2 h incubation, the absorbance was measured spectrophotometrically in Synergy 2 Microplate Reader (BioTek, VT) at a wavelength of 490 nm. The relative cell viability (%) was calculated as [A]sample/[A]untreated×100%.

[7] = test system: CXCR4+U2OS cells; experiment: Luciferase transfection in CXCR4+U2OS cells; format: cell-based, Human; conditions: 100 ng/mL, serum-free medium, 4 h

Inhibition of phorbol-stimulated CXCR4 internalization [3]: do not inhibit
Decrease in EtBr fluorescence [4]: about 30%
SMILES: c1cc(CN2CCCNCCNCCCNCC2)ccc1CN1CCCNCCNCCCNCC1 [AMD3100, 1,1′-[1,4-Phenylenebis(methylene)]bis[1,4,8,11-tetraazacyclotetradecane]]
Blocked invasion (% of cells) [1]: 75%
Effect on CXCL12-induced calcium signaling (CXCR4-mediated) [2]: strong antagonistic effect; also recorded: CXCL12 antagonists
Transfection level [5]: only background levels of transfection

SMILES: [Cl][Cu][Cl] [CuCl2]
Toxicity with increasing copper content [6]: No toxicity

SMILES: CCCCCCCCCCCCCC(=O)O[C@@H]1[C@@H](C)[C@@]2(O)[C@@H](C=C(CO)C[C@]3(O)C(=O)C(C)=C[C@@H]23)[C@@H]2C(C)(C)[C@]12OC(C)=O [PMA, phorbol 12-myristate 13-acetate]
Cytotoxicity under the transfection conditions [7]: No cytotoxicity
